# Measured values published in patent US8859574B2 (IRM LLC, priority 2008, dated 2014).
# Target: T1, IGF-1R Ba/F3 (Homo sapiens, UniProt P08069)
# T1 construct: fused on or other part: TEL- (or BCR-) IGF-1R in Ba/F3: the kinase part holds the site
# Experiment: Ba/F3 Cell Viability Inhibition Assay (IGF-1R Ba/F3)
# Type: cell-based, murine
# Details: Tel-TK transformed Ba/F3 cells, 48 hours, Britelite luminescence
# How it was run: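 IL-3-independent murine Ba/F3 cells transformed with a TEL/BCR-fused IGF-1R kinase were seeded at 3750 cells/well and exposed to serially diluted compound for 48 h at 37 °C. Viability was read by Britelite luminescence. IC50 is the concentration giving 50% of DMSO-control viability, from a logistic fit.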
# T1 sequence (P08069 999-1274 limits assumed): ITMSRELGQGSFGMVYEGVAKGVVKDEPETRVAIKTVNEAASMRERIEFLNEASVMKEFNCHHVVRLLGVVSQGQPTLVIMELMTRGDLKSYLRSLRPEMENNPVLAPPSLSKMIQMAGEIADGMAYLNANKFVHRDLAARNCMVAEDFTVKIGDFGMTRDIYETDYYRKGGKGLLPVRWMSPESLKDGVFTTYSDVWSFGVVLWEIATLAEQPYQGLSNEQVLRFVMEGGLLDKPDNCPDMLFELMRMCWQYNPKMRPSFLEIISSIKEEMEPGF
row,SMILES,IC50 [nM]
1,"Cc1cc(Nc2nc(Nc3cc(C)c(C4CCN(C5CCN(S(C)(=O)=O)C5)CC4)cc3F)ncc2Cl)n[nH]1 (stereo not drawn) [Compound 301, 5-chloro-N2-(2-fluoro-5-methyl-4-(1-(1-(methylsulfonyl)pyrrolidin-3-yl)piperidin-4-yl)phenyl)-N4-(5-methyl-1H-pyrazol-3-yl)pyrimidine-2,4-diamine]",38
2,"Cc1noc(CN2CCC(c3cc(C)c(Nc4ncc(Cl)c(Nc5cc(C)[nH]n5)n4)cc3C)CC2)n1 [Compound 302, 5-chloro-N2-(2,5-dimethyl-4-(1-((3-methyl-1,2,4-oxadiazol-5-yl)methyl)piperidin-4-yl)phenyl)-N4-(5-methyl-1H-pyrazol-3-yl)pyrimidine-2,4-diamine]",6
3,"CCc1noc(CN2CCC(c3cc(C)c(Nc4ncc(Cl)c(Nc5cc(C)[nH]n5)n4)cc3C)CC2)n1 [Compound 303, 5-chloro-N2-(4-(1-((3-ethyl-1,2,4-oxadiazol-5-yl)methyl)piperidin-4-yl)-2,5-dimethylphenyl)-N4-(5-methyl-1H-pyrazol-3-yl)pyrimidine-2,4-diamine]",6
4,"Cc1cc(Nc2nc(Nc3cc(C)c(C4CCN(Cc5noc(C)n5)CC4)cc3C)ncc2Cl)n[nH]1 [Compound 304, 5-chloro-N2-(2,5-dimethyl-4-(1-((5-methyl-1,2,4-oxadiazol-3-yl)methyl)piperidin-4-yl)phenyl)-N4-(5-methyl-1H-pyrazol-3-yl)pyrimidine-2,4-diamine]",5
5,"Cc1cc(Nc2nc(Nc3cc(C)c(C4CCN(Cc5noc(C(C)C)n5)CC4)cc3C)ncc2Cl)n[nH]1 [Compound 305, 5-chloro-N2-(4-(1-((5-isopropyl-1,2,4-oxadiazol-3-yl)methyl)piperidin-4-yl)-2,5-dimethylphenyl)-N4-(5-methyl-1H-pyrazol-3-yl)pyrimidine-2,4-diamine]",25
6,"Cc1cc(Nc2nc(Nc3cc(C)c(C4CCN(C5COC5)CC4)cc3F)ncc2Cl)n[nH]1 [Compound 306, 5-chloro-N2-(2-fluoro-5-methyl-4-(1-(oxetan-3-yl)piperidin-4-yl)phenyl)-N4-(5-methyl-1H-pyrazol-3-yl)pyrimidine-2,4-diamine]",15
7,"Cc1cc(Nc2nc(Nc3cc(C)c(C4CCN(Cc5ccccn5)CC4)cc3C)ncc2Cl)n[nH]1 [Compound 307, 5-chloro-N2-(2,5-dimethyl-4-(1-(pyridin-2-ylmethyl)piperidin-4-yl)phenyl)-N4-(5-methyl-1H-pyrazol-3-yl)pyrimidine-2,4-diamine]",7
8,"Cc1cc(Nc2nc(Nc3cc(C)c(C4CCN(Cc5cccnc5)CC4)cc3C)ncc2Cl)n[nH]1 [Compound 308, 5-chloro-N2-(2,5-dimethyl-4-(1-(pyridin-3-ylmethyl)piperidin-4-yl)phenyl)-N4-(5-methyl-1H-pyrazol-3-yl)pyrimidine-2,4-diamine]",6
9,"Cc1cc(Nc2nc(Nc3cc(C)c(C4CCN(Cc5ccncc5)CC4)cc3C)ncc2Cl)n[nH]1 [Compound 309, 5-chloro-N2-(2,5-dimethyl-4-(1-(pyridin-4-ylmethyl)piperidin-4-yl)phenyl)-N4-(5-methyl-1H-pyrazol-3-yl)pyrimidine-2,4-diamine]",8
10,"Cc1cc(Nc2nc(Nc3cc(C)c(C4CCN([C@H]5CC[C@H](O)CC5)CC4)cc3F)ncc2Cl)n[nH]1 [Compound 310, Trans-4-(4-(4-(5-chloro-4-(5-methyl-1H-pyrazol-3-ylamino)pyrimidin-2-ylamino)-5-fluoro-2-methylphenyl)piperidin-1-yl)cyclohexanol]",27
11,"Cc1cc(Nc2nc(Nc3cc(C)c(C4CCN([C@H]5CC[C@@H](O)CC5)CC4)cc3F)ncc2Cl)n[nH]1 [Compound 311, Cis-4-(4-(4-(5-chloro-4-(5-methyl-1H-pyrazol-3-ylamino)pyrimidin-2-ylamino)-5-fluoro-2-methylphenyl)piperidin-1-yl)cyclohexanol]",21
12,"Cc1cc(Nc2nc(Nc3cc(C)c(C4CCN([C@@H]5CCN(S(C)(=O)=O)C5)CC4)cc3F)ncc2Cl)n[nH]1 [Compound 312, (R)-5-chloro-N2-(2-fluoro-5-methyl-4-(1-(1-(methylsulfonyl)pyrrolidin-3-yl)piperidin-4-yl)phenyl)-N4-(5-methyl-1H-pyrazol-3-yl)pyrimidine-2,4-diamine]",25
13,"Cc1cc(Nc2nc(Nc3cc(C)c(C4CCN([C@H]5CCN(S(C)(=O)=O)C5)CC4)cc3F)ncc2Cl)n[nH]1 [Compound 313, (S)-5-chloro-N2-(2-fluoro-5-methyl-4-(1-(1-(methylsulfonyl)pyrrolidin-3-yl)piperidin-4-yl)phenyl)-N4-(5-methyl-1H-pyrazol-3-yl)pyrimidine-2,4-diamine]",30
14,"Cc1cc(Nc2nc(Nc3cc(C)c(C4CCN(Cc5cncnc5)CC4)cc3F)ncc2Cl)n[nH]1 [Compound 314, 5-Chloro-N^2-(2-fluoro-5-methyl-4-(1-(pyrimidin-5-ylmethyl)piperidin-4-yl)phenyl)-N^4-(5-methyl-1H-pyrazol-3-yl)pyrimidine-2,4-diamine]",37
15,"Cc1cc(Nc2nc(Nc3cc(C)c(C4CCN(Cc5cnccn5)CC4)cc3F)ncc2Cl)n[nH]1 [Compound 315, 5-chloro-N2-(2-fluoro-5-methyl-4-(1-(pyrazin-2-ylmethyl)piperidin-4-yl)phenyl)-N4-(5-methyl-1H-pyrazol-3-yl)pyrimidine-2,4-diamine]",36
16,"Cc1cc(Nc2nc(Nc3cc(C)c(C4CCN(Cc5ccnnc5)CC4)cc3F)ncc2Cl)n[nH]1 [Compound 316, 5-chloro-N2-(2-fluoro-5-methyl-4-(1-(pyridazin-4-ylmethyl)piperidin-4-yl)phenyl)-N4-(5-methyl-1H-pyrazol-3-yl)pyrimidine-2,4-diamine]",27
17,"Cc1cc(Nc2nc(Nc3cc(C)c(C4CCN(Cc5cncnc5)CC4)cc3C)ncc2Cl)n[nH]1 [Compound 317, 5-chloro-N2-(2,5-dimethyl-4-(1-(pyrimidin-5-ylmethyl)piperidin-4-yl)phenyl)-N4-(5-methyl-1H-pyrazol-3-yl)pyrimidine-2,4-diamine]",4
18,"Cc1cc(Nc2nc(Nc3cc(C)c(C4CCN(Cc5cnccn5)CC4)cc3C)ncc2Cl)n[nH]1 [Compound 318, 5-chloro-N2-(2,5-dimethyl-4-(1-(pyrazin-2-ylmethyl)piperidin-4-yl)phenyl)-N4-(5-methyl-1H-pyrazol-3-yl)pyrimidine-2,4-diamine]",10
